Columns and labels:
Flt3 [1] = target: T1, Flt3 (Homo sapiens, UniProt P36888); assay: Ba/F3 cell proliferation (WST-1), Flt3; conditions: Ba/F3 cells expressing the enzyme, read-out: Cell-based assay IC50, Flt3
c-Met = target: T2, c-Met (Homo sapiens, UniProt P08581); assay: Recombinant kinase ELISA assay, c-Met; type: biochemical; conditions: recombinant human enzyme; ELISA-based assay, poly(Glu,Tyr 4:1) substrate
T2 construct: c-Met (949–1398); 6xHN (N); made in house; host or cells: baculovirus, Sf9 insect cells
Experimental: (§1) Full details for the generation of recombinant human KIT intracellular domain and other protein kinases (including Lyn, platelet derived growth factor receptor β, epidermal growth factor receptor, fibroblast growth factor receptor 1, Src, HCK, PYK, FES, Btk, Bmx, c-Ret, c-Fms, Syk, and c-Met) are provided in the Supplemental Methods (see Supporting Information; Methods S1). Experiments on ABL1, Akt1, protein kinase C-α, insulin-like growth factor receptor 1, and Pim1 were carried out by Proqinase (Germany). All other recombinant protein kinases were performed in-house using an enzyme-linked immunoassay; experimental details are provided in the Supplemental Methods (see Supporting Information; Methods S1).
(§2) The sequences encoding PDGF receptor β (residues 554–1106; GenBank accession no. BC032224), Lyn B (2–583; accession no. BC059394), fibroblast growth factor receptor 1 (572–959; accession no. BC018128), Src (2–536; accession no. BC011566), Btk (2–659; accession no. BC109079), Bmx (2–675; accession no. BC016652), c-Ret (713–1114; accession no. BC004257), c-Fms (538–972; BC047531), Syk (2–612; BC011399), Hck (2-526; accession no. BC014435), Fes (2-822; accession no. BC035357), PYK2 (2-1006; accession no. BC042599) and c-Met (949–1398; accession no. lifeseq3489592) were amplified by PCR from IMAGE cDNA clones purchased from Openbiosystems. […]

Flt3 [2] = target: T1, Flt3; assay: Recombinant kinase ELISA assay, Flt3; type: biochemical; conditions: recombinant human enzyme; ELISA-based assay, poly(Glu,Tyr 4:1) substrate
Experimental: as §1

Alk = target: T3, Alk (Homo sapiens, UniProt Q9UM73); assay: Ba/F3 cell proliferation (WST-1), Alk; conditions: Ba/F3 cells expressing the enzyme, read-out: Cell-based assay IC50, Alk
T3 construct: expressed in transfected cells; host or cells: Ba/F3

KIT D^814V (murine) = target: T4, KIT D^814V (murine) (Mus musculus, UniProt P05532, D818V); assay: Ba/F3 cell proliferation (WST-1), KIT D814V; conditions: Ba/F3 cells expressing the enzyme, read-out: Cell-based assay IC50, KIT D^814V (murine)
T4 construct: expressed in transfected cells; host or cells: Ba/F3

Btk = target: T5, Btk (Homo sapiens, UniProt Q06187); assay: Recombinant kinase ELISA assay, Btk; type: biochemical; conditions: recombinant human enzyme; ELISA-based assay, poly(Glu,Tyr 4:1) substrate
T5 construct: Btk (2–659; BC109079); 6xHN (N); made in house; host or cells: baculovirus, Sf9 insect cells
Experimental: as §1, §2

FMA3 cells = assay: Mastocytoma cell line proliferation (WST-1), FMA3; type: cell-based, murine; conditions: Mus musculus, 48 h; 2 days; KIT juxtamembrane mutation
Experimental: (B) western blotting analysis of HMC-1α155 tyrosine phosphorylation. […] (D) Western blotting analysis of BMMC tyrosine phosphorylation. Cell proliferation was assessed by WST-1 colorimetric assay. […] MW = molecular weight.

[3] = system: EOL1 cells expressing the FIP1L1-PDGFRα chimeric protein; assay: EOL1 cell proliferation; type: cell-based; conditions: Homo sapiens, EOL1, read-out: IC50, inhibition of proliferation in EOL1 cells
Experimental: Figures 5C), a hypereosinophilic tumour cell line expressing the FIP1L1-PDGFRα chimeric protein, which is associated with chronic eosinophilic leukaemia.
Cell growth was assessed by WST-1 colorimetric assay. […] (D) Western blotting analysis of EOL1 tyrosine phosphorylation. MW = molecular weight markers.

[4] = target: Fibroblast growth factor receptor 3 (Homo sapiens, UniProt P22607); assay: Ba/F3 cell proliferation (WST-1), FGFR3; conditions: Ba/F3 cells expressing the enzyme, read-out: Cell-based assay IC50, Fibroblast growth factor receptor 3
Jak2 = Jak2 (Homo sapiens, UniProt O60674); assay: Recombinant kinase screen (Proqinase), Jak2; type: biochemical; conditions: recombinant human enzyme; single experiment, kinase screen by Proqinase
[5] = target: Fibroblast growth factor receptor 1 (Homo sapiens, UniProt P11362); assay: Ba/F3 cell proliferation (WST-1), FGFR1; parameters: expressed in transfected cells; host or cells: Ba/F3 (general description; not repeated for this kinase); conditions: Ba/F3 cells expressing the enzyme, read-out: Cell-based assay IC50, Fibroblast growth factor receptor 1
Jak1 = target: T6, Jak1 (Homo sapiens, UniProt P23458); assay: Ba/F3 cell proliferation (WST-1), Jak1; conditions: Ba/F3 cells expressing the enzyme, read-out: Cell-based assay IC50, Jak1
T6 construct: expressed in transfected cells; host or cells: Ba/F3

[6] = target: Insulin-like growth factor-I receptor (Homo sapiens, UniProt P08069); assay: Recombinant kinase screen (Proqinase), IGF-I receptor; type: biochemical; conditions: recombinant human enzyme; single experiment, kinase screen by Proqinase
Experimental: as §1

c-Ret = target: T7, c-Ret (Homo sapiens, UniProt P07949); assay: Ba/F3 cell proliferation (WST-1), c-Ret; conditions: Ba/F3 cells expressing the enzyme, read-out: Cell-based assay IC50, c-Ret
T7 construct: expressed in transfected cells; host or cells: Ba/F3 (general description; not repeated for this kinase)

[7] = target: Epidermal growth factor receptor (Homo sapiens, UniProt P00533); assay: Ba/F3 cell proliferation (WST-1), EGFR; conditions: Ba/F3 cells expressing the enzyme, read-out: Cell-based assay IC50, Epidermal growth factor receptor
Tyk2 = target: T8, Tyk2 (Homo sapiens, UniProt P29597); assay: Ba/F3 cell proliferation (WST-1), Tyk2; conditions: Ba/F3 cells expressing the enzyme, read-out: Cell-based assay IC50, Tyk2
T8 construct: expressed in transfected cells; host or cells: Ba/F3

[8] = system: Salmonella typhimurium and Escherichia coli; assay: Bacterial reverse mutation test; conditions: our unpublished results

T1 sequence (P36888 27-993): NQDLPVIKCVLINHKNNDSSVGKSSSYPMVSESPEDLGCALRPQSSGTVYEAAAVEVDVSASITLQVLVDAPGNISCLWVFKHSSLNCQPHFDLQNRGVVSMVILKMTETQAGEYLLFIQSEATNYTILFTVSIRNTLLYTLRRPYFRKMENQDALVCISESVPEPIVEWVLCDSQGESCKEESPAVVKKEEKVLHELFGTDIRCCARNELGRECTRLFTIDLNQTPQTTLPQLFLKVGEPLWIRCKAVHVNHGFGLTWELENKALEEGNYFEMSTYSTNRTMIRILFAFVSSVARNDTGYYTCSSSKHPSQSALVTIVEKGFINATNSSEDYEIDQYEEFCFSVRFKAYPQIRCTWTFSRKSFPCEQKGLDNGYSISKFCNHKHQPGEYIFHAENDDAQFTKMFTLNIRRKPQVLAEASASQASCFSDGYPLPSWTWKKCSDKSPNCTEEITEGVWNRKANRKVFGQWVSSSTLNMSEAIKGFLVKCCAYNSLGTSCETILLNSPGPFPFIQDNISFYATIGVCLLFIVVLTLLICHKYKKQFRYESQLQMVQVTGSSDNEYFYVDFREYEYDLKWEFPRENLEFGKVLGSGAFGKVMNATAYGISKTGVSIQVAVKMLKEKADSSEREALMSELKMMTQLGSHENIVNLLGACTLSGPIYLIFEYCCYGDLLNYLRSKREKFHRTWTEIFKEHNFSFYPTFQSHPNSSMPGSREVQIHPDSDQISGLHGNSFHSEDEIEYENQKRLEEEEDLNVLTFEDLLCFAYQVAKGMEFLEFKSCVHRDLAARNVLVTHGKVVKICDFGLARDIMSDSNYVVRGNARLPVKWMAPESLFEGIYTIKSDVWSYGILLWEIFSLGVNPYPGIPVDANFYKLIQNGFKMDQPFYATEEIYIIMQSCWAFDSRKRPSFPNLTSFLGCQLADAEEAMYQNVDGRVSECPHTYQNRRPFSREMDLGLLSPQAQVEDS
T3 sequence (Q9UM73 19-1620, species assumed): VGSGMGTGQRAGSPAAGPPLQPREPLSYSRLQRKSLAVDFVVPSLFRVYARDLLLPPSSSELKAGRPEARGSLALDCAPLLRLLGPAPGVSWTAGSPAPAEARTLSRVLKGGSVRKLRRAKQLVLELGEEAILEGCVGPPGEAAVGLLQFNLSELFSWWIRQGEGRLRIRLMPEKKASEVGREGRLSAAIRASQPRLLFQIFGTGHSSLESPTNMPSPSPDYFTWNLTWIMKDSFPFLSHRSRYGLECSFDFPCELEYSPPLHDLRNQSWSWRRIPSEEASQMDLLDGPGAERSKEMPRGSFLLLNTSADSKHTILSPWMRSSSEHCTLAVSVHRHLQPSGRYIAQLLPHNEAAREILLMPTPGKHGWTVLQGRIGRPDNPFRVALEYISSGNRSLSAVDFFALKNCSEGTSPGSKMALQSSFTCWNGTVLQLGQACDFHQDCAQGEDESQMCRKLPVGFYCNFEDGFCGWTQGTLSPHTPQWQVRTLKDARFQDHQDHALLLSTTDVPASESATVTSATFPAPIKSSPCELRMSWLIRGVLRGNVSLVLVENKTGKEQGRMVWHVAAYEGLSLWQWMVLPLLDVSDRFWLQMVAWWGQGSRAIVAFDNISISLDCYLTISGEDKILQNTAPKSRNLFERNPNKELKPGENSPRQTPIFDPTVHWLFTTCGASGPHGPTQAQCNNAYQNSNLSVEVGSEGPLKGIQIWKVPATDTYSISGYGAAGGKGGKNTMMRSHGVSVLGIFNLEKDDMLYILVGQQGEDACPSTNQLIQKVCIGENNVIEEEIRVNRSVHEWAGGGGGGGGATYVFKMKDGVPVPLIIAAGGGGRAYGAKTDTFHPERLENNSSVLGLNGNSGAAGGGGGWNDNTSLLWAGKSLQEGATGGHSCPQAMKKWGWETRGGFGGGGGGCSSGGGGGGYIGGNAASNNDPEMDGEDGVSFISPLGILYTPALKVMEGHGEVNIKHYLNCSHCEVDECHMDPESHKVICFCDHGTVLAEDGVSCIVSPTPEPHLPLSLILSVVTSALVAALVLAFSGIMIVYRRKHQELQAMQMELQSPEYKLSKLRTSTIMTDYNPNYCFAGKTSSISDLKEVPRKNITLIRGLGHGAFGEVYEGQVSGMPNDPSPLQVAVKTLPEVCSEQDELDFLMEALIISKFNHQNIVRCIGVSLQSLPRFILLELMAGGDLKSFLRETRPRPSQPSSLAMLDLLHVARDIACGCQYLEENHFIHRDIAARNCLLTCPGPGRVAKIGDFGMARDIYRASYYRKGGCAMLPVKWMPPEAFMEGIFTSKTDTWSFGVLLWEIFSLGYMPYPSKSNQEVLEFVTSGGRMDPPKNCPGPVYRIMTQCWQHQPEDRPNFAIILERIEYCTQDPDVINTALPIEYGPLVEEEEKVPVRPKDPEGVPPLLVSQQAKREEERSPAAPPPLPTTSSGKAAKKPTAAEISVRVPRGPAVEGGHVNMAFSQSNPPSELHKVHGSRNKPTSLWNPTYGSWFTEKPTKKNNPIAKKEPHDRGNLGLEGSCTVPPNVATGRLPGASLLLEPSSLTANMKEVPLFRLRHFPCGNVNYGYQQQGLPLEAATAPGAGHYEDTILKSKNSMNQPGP
T2 sequence (P08581 949-1390 limits assumed): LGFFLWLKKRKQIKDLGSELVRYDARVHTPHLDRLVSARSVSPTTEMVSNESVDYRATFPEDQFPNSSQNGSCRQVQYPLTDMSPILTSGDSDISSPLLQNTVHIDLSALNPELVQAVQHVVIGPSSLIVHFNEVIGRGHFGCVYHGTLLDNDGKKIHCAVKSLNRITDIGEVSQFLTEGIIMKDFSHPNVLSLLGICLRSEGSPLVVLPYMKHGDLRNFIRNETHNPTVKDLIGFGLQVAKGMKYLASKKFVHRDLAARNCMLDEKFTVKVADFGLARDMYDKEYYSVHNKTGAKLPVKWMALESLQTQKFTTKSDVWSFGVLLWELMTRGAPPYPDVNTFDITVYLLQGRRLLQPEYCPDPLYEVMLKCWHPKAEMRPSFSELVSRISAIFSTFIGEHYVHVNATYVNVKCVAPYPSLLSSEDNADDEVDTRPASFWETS
Chain of Fibroblast growth factor receptor 1 (P11362 22-822): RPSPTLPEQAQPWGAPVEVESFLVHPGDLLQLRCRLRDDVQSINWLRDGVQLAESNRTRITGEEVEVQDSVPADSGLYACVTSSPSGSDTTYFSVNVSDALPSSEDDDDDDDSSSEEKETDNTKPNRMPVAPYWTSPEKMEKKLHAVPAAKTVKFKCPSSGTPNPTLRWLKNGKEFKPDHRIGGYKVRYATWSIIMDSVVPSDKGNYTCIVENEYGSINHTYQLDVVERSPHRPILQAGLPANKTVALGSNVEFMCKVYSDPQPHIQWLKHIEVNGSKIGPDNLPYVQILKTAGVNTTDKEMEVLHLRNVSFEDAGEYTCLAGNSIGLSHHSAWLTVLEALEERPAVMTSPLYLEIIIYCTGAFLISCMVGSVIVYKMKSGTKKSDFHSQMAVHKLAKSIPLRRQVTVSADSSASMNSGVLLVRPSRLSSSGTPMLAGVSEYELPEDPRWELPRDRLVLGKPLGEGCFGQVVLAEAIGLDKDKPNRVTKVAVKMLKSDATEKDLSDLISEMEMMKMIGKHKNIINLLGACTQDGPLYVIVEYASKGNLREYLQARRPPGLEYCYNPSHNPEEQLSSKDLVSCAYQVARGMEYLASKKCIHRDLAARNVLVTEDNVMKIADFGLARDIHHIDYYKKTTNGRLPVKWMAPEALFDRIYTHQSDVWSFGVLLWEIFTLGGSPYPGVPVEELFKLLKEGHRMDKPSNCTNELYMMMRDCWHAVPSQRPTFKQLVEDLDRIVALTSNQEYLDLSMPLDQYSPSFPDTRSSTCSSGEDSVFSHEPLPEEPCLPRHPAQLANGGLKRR
T6 sequence (P23458 whole entry, species assumed): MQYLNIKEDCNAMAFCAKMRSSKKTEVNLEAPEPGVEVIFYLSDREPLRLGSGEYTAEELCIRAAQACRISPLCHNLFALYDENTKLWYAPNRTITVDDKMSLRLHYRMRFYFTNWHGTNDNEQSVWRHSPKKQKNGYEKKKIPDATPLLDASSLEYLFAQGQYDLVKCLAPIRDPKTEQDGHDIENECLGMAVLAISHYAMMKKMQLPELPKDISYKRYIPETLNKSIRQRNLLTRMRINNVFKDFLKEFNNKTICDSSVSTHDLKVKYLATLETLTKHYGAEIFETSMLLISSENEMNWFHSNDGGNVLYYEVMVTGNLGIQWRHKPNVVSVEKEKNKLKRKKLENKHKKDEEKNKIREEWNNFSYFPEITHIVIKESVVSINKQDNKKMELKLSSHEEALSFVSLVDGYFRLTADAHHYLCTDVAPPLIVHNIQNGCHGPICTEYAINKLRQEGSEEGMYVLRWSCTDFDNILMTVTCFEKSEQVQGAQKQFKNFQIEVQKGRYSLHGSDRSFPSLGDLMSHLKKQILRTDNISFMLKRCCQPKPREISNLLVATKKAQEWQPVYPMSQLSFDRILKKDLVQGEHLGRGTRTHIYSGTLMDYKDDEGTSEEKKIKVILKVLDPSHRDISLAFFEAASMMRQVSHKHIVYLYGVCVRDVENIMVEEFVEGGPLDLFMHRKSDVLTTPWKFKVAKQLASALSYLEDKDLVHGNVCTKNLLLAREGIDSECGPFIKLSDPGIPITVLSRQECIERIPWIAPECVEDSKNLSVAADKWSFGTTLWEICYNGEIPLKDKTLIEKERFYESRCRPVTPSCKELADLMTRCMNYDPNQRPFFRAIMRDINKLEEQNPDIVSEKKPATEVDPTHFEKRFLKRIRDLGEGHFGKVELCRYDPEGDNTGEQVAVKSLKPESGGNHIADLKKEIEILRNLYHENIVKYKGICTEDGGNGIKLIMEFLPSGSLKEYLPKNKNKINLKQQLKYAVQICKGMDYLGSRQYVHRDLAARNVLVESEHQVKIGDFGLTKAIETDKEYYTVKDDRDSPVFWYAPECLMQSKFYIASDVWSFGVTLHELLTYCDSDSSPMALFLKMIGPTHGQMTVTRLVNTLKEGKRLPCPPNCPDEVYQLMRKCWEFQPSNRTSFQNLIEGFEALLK

How did the IC50 (Flt3 [1]) turn out when `CS(=O)(=O)O.CS(=O)(=O)O.Cc1ccc(NC(=O)c2ccc(CN3CCN(C)CC3)cc2)cc1Nc1nc(-c2cccnc2)cs1` [masitinib, 4-(4-methylpiperazin-1-ylmethyl)-N-[4-methyl-3-(4-pyridin-3ylthiazol-2-ylamino)phenyl]benzamide-mesylate methane sulfonic acid salt] was run?
The IC50 was 5 ± 2 µM.

What about the IC50 (c-Met) of the same compound?
The IC50 was greater than 10 µM.

What about the IC50 (Flt3 [2]) of the same compound?
Its IC50 is greater than 10 µM.

What about the IC50 (Alk) of the same compound?
The IC50 was 9 ± 0.18 µM.

What about the IC50 (KIT D^814V (murine)) of the same compound?
Its IC50 is 3 ± 0.1 µM.

What about the IC50 (Btk) of the same compound?
The IC50 was greater than 10 µM.

And the IC50 (FMA3 cells)?
The IC50 was roughly 0.03 µM.

And the IC50 [3]?
Its IC50 is 0.0002 ± 0.0001 µM.

What about the IC50 [4] of the same compound?
Its IC50 is 5.5 ± 2.8 µM.

What about the IC50 (Jak2) of the same compound?
Its IC50 is greater than 10 µM.

And the IC50 [5]?
The IC50 was 7 ± 1.9 µM.

What about the IC50 (Jak1) of the same compound?
Its IC50 is 8 ± 1.4 µM.

What about the IC50 [6] of the same compound?
The IC50 was greater than 10 µM.

And the IC50 (c-Ret)?
Its IC50 is 8 ± 1.2 µM.

What about the IC50 [7] of the same compound?
The IC50 was 7 ± 0.8 µM.

And the IC50 (Tyk2)?
The IC50 was 9 ± 0.8 µM.

What about the “mutagenicity in bacterial reverse mutation tests” value [8] of the same compound?
The value was “not mutagenic”.

Reference: paper PMC2746281 (PLoS ONE, 2009)
